Data taken from ChEMBL document CHEMBL1201862, “PubChem BioAssay data set” (2004).
Active and inactive are the calls of the source.

What was measured:
[1] = biological target: T1, Corticotropin-releasing factor receptor 2/Corticotropin-releasing factor-binding protein (Homo sapiens, UniProt P24387+Q13324); test: Dose Response confirmation of uHTS hits for small molecule antagonists of the CRF-binding protein and CRF-R2 receptor complex.; type: functional; conditions: read-out: IC50_Mean
T1 sequence (Q13324 whole entry): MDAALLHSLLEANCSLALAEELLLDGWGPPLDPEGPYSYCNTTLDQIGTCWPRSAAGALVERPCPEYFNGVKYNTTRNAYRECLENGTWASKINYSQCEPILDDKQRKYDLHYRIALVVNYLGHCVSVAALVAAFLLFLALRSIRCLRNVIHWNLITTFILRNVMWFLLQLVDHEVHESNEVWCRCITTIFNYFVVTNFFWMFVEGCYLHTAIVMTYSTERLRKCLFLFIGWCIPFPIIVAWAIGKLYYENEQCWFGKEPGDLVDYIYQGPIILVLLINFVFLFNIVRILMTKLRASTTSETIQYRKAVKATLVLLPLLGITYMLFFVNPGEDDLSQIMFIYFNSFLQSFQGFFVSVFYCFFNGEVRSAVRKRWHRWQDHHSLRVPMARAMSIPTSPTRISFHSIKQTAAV
T1 sequence (P24387 whole entry): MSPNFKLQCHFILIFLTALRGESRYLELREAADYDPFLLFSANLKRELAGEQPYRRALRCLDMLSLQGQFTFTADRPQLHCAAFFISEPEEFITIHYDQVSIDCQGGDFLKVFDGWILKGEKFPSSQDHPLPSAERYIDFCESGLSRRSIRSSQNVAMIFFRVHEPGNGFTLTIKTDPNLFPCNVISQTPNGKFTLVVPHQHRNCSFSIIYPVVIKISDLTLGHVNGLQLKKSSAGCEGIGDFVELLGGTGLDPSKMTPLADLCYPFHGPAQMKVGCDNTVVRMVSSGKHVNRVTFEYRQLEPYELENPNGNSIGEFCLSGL

[2] = biological target: T1, Corticotropin-releasing factor receptor 2/Corticotropin-releasing factor-binding protein; test: activators of CRF receptor 2 with binding protein – uHTS hits, confirmation (AID 602473); type: functional; conditions: read-out: EC50_Mean
[3] = biological target: T2, RNA-binding protein pos-1 (Caenorhabditis elegans, UniProt G5EF15); test: inhibitors of POS-1/mex-3 RNA binding, dose response, biochemical, fluorescence polarization (AID 1964);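 also: purified POS-1 fused to maltose binding protein made in E. coli; potency of compounds blocking POS-1 binding to fluorescent RNA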
T2 sequence (G5EF15 whole entry): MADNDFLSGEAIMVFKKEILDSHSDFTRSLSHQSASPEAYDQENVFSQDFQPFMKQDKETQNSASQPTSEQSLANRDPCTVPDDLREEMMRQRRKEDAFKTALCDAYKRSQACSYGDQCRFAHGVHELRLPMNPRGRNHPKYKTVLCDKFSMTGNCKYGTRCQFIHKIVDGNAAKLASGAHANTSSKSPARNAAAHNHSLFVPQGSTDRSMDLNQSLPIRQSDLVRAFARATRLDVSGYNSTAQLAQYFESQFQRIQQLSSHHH

[4] = biological target: T3, Zinc finger protein mex-5 (Caenorhabditis elegans, UniProt Q9XUB2); test: MEX-5/TCR-2 RNA interaction inhibitors, dose response, biochemical, C. elegans, fluorescence polarization (AID 1960)
T3 sequence (Q9XUB2 whole entry): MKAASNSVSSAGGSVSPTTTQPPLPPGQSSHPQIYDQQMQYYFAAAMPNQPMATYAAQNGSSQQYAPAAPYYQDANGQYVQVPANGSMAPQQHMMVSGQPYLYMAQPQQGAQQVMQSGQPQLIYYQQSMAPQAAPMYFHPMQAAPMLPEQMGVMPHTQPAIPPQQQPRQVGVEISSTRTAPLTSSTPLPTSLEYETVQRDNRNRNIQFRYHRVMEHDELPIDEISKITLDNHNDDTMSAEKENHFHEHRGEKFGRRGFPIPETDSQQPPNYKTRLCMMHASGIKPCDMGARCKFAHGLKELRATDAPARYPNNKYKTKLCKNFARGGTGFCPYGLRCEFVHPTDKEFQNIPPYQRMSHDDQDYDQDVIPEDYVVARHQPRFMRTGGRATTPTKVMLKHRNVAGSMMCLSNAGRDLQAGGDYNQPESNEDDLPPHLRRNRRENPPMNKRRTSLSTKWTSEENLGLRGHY

[5] = Luminescence Cell-Based Dose Confirmation HTS to Identify Inhibitors of Platelet Dense Granule Release. [Related pubchem assays: 1663 (Primary HTS), 1678 (Summary of Project)]; type: functional
[6] = biological target: Luciferin 4-monooxygenase (Photinus pyralis, UniProt P08659); test: firefly luciferase enzyme inhibitors, dose response, biochemical, luminescence (AID 1891)
[7] = control 3'UTR Renilla luciferase suppression, dose response, counter-screen for Shn3 inhibitor project, cell-based, Clone20-Shn3RL, cherry-picked (AID 624133); type: functional
[8] = HepG2 cell cytotoxicity, dose response, cytotoxicity control for Shn3 inhibitor project, CellTiter-Glo, cherry-picked (AID 624134); type: functional, cell-based
[9] = Shn3 3'UTR reporter inhibitors, dose response, cell-based, Clone20 osteoblasts, firefly luciferase, cherry-picked (AID 624132); type: functional;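 also: firefly luciferase luminescence from reporter carrying the Shn3 3'UTR in osteoblasts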
[10] = biological target: T4, Polyadenylate-binding protein 1 (Homo sapiens, UniProt P11940); test: PABP1 MLLE–PAM2 interaction inhibitors, dose response, miRNA deadenylation inhibitor project, biochemical, fluorescence polarization, Cy5-PAM2 peptide, secondary (AID 602260); type: functional; conditions: read-out: IC50_Mean
[11] = biological target: T4, Polyadenylate-binding protein 1; test: PABP1 MLLE–PAM2 binding inhibitor potency, dose response, biochemical, fluorescence polarization, FITC-PAM2 peptide (AID 602259); type: functional; conditions: read-out: IC50_Mean
Nonstructural protein 1 = Nonstructural protein 1 (Influenza A virus, UniProt Q194T2); type: functional, Influenza A virus (A/California/07/2009(H1N1))
Paired box protein Pax-8 = Paired box protein Pax-8 (Homo sapiens, UniProt Q06710); test: inhibitors of PAX8-driven TPO luciferase reporter, dose response, RMG-I cells, cherry-pick (AID 687027); type: functional, cell-based;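 also: luciferase reporter driven by Pax8 target thyroperoxidase promoter measured by SteadyGlo luminescence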
[12] = biological target: T5, Heat shock factor protein 1 (Mus musculus, UniProt P38532); test: inhibition of MG132-induced HSE-luciferase signal, confirmation, cell-based, NIH3T3, luminescence, dose retest (AID 2382); type: functional;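 also: NIH3T3 fibroblasts with HSF1-driven luciferase reporter stressed by proteasome inhibitor MG132; luminescence from HSF1-driven luciferase expression after 8 hours of MG132 stress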
T5 sequence (P38532 whole entry): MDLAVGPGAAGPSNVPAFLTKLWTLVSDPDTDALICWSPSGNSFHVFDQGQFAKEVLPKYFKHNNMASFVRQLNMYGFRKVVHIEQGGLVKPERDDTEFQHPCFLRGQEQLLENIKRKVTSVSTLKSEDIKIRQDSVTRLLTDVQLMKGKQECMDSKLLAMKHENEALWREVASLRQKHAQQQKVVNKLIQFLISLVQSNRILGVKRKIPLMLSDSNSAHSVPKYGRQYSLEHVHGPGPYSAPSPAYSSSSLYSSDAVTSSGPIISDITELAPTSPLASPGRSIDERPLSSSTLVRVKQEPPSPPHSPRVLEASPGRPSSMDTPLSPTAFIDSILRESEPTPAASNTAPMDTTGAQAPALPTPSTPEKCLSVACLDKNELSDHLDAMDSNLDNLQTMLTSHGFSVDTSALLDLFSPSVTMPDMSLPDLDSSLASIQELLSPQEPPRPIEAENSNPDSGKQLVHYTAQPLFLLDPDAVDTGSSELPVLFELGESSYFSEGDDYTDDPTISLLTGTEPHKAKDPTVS

Luciferin 4-monooxygenase, sequence (P08659 whole entry): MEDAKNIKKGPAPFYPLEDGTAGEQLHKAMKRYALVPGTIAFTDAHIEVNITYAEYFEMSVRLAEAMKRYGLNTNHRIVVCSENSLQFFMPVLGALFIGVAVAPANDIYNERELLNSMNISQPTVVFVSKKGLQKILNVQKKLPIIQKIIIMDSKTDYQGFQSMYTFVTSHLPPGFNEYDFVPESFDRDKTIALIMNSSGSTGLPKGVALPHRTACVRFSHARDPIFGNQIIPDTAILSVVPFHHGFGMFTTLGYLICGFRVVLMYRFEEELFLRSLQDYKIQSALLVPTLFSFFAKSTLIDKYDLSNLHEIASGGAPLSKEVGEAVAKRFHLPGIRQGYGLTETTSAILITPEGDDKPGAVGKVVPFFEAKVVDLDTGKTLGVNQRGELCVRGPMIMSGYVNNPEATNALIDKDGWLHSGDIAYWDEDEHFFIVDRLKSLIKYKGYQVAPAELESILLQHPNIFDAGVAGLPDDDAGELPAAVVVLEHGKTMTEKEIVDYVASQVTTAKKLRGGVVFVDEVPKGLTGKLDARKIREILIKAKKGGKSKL
Paired box protein Pax-8, sequence (Q06710 whole entry): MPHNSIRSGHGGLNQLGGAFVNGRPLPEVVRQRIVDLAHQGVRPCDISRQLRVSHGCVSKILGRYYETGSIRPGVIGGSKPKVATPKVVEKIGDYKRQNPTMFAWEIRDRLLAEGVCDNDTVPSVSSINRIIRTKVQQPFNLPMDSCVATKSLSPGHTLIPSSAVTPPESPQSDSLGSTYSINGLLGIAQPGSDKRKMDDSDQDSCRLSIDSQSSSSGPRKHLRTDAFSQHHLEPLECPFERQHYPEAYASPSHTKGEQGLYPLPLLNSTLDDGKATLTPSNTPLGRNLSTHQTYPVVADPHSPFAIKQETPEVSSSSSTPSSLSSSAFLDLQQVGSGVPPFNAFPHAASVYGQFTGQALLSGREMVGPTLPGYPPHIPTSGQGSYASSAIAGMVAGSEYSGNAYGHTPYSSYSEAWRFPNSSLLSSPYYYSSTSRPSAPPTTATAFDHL
Nonstructural protein 1, sequence (Q194T2 whole entry): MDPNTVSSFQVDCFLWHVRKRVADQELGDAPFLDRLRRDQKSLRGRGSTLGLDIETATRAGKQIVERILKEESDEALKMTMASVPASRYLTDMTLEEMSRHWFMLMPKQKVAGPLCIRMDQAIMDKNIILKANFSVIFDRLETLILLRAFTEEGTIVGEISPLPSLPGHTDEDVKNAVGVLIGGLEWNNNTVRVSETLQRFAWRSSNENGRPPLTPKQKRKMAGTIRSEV
T4 sequence (P11940 whole entry): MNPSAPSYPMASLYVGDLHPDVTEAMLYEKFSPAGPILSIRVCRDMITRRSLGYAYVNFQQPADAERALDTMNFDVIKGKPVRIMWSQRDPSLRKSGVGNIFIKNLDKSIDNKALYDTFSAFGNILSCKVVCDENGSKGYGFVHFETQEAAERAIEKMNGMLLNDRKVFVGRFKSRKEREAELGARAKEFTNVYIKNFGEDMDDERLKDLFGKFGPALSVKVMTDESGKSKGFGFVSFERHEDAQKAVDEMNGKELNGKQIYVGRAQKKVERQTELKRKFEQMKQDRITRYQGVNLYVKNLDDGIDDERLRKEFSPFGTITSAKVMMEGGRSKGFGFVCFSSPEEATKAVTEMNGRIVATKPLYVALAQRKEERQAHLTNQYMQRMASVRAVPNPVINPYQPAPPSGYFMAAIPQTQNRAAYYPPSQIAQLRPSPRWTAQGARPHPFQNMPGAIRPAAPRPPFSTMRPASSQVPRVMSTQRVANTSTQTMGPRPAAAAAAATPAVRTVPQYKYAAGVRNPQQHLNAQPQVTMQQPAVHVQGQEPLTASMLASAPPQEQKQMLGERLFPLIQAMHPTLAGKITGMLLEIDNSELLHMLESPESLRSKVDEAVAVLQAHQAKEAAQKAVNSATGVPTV

Compound: Nc1ncnc(NNC(=O)CNC(=O)c2c(F)cccc2Cl)c1[N+](=O)[O-]
- IC50 [1]: > 47.1 µM (inactive)
- EC50 [2]: > 53 µM (inactive)
- EC50 [3]: 0.548 µM (active)
- EC50 [4]: 0.241 µM (active)

Compound: CNc1nc2c(N)ncnc2n1[C@H]1O[C@@H](CO)[C@H](O)[C@@H]1O
- EC50 [5]: 1.36 µM (active)
- EC50 [6]: > 112 µM (not active)

Compound: Cc1cccc(C)c1N1CCN(C(=O)c2ccc3c(c2)OCO3)CC1
- IC50 [1]: > 47.1 µM (inactive)
- EC50 [2]: > 53 µM (inactive)

Compound: COc1ccc(CNCCC(c2ccc(OC(C)C)cc2)c2ccccc2OC)cc1OC (centres undefined)
- AC50 [7]: 5.37 µM (active)
- AC50 [8]: 19.1 µM (active)
- AC50 [9]: 4.35 µM (active)

Compound: COCCn1c(=N)c(C(=O)NCc2ccco2)cc2c(=O)n3cc(C)ccc3nc21
- IC50 [1]: > 47.1 µM (inactive)
- EC50 [2]: > 53 µM (inactive)
- IC50 [10]: 33.2 µM (inactive)
- IC50 [11]: 16.7 µM (active)

Compound: Cc1ccc2c(CC(=O)N3CCN(S(=O)(=O)c4cccs4)CC3)coc2c1
- EC50 [5]: > 112 µM (not active)
- EC50 [6]: > 112 µM (not active)

Compound: C=CCN1C(=O)NC(=O)/C(=C/c2c(CCN(C)C(=O)c3ccccc3)cc3c(c2OC)OCO3)C1=O
- EC50 [3]: > 300 µM (not active)
- EC50 [4]: > 300 µM (not active)

Compound: CCC(Oc1ccccc1)C(=O)Nc1ccccn1 (centres undefined)
- EC50 [3]: > 300 µM (not active)
- EC50 [4]: > 300 µM (not active)

Compound: Cc1cc(NC(=O)CCN2CCN(C/C=C/c3ccccc3)CC2)ccc1Br
- AC50 [7]: 15 µM (active)
- AC50 [8]: > 70 µM (inactive)
- AC50 [9]: 10.2 µM (active)

Compound: O=C1C(NS(=O)(=O)c2cccs2)=C(N2CCN(c3ccccc3)CC2)C(=O)c2ccccc21
- IC50 (Nonstructural protein 1): 21.6 µM (active)

Compound: Cc1cc(C)c2c(CC(=O)Nc3nccs3)coc2c1
- IC50 [1]: > 47.1 µM (inactive)
- EC50 [2]: > 53 µM (inactive)

Compound: O=[N+]([O-])c1ccc(Nc2ccc(N3CCOCC3)cc2)c([N+](=O)[O-])c1
- IC50 (Nonstructural protein 1): 71.6 µM (active)

Compound: CN(C)c1ccc(C2CC(c3cccc(NS(C)(=O)=O)c3)=NN2C(=O)c2ccccc2)cc1 (centres undefined)
- IC50 (Nonstructural protein 1): > 100 µM (active)

Compound: COc1cc(C2C(C#N)=C(N)Oc3[nH]nc(-c4ccccn4)c32)cc(OC)c1OC (centres undefined)
- IC50 [1]: > 47.1 µM (inactive)
- EC50 [2]: > 53 µM (inactive)

Compound: O=C(NC1CC1)c1ccc2c(c1)C1C3CCC(C3)C1C(c1ccccc1)N2 (centres undefined)
- AC50 (Paired box protein Pax-8): 48.2 µM (active)

Compound: CCOC(=O)c1c(O)nc2ccccc2c1N1CCCCC1
- EC50 [5]: > 112 µM (not active)
- EC50 [12]: > 195 µM (not active)
- EC50 [6]: > 112 µM (not active)

Compound: S=C(Nc1ccc2c(c1)OCO2)Nc1ccccc1Cl
- IC50 [1]: > 47.1 µM (inactive)
- EC50 [2]: > 53 µM (inactive)

Compound: COCc1nnc(NC(=O)CSCc2ccccc2)s1
- EC50 [5]: > 112 µM (not active)
- EC50 [6]: > 112 µM (not active)

Compound: OCCN1CCN(CC(O)COc2ccc(Cl)cc2)CC1 (centres undefined)
- EC50 [5]: > 112 µM (not active)
- EC50 [6]: > 112 µM (not active)

Compound: CN(C1=C(N2CCCCC2)C(=O)c2ccccc2C1=O)c1ccccc1
- IC50 (Nonstructural protein 1): 6.94 µM (active)

Compound: COc1ccc(P(=O)(COc2ccc([N+](=O)[O-])cc2)c2ccc(OC)cc2)cc1
- EC50 [5]: > 112 µM (not active)
- EC50 [6]: > 112 µM (not active)

Compound: COc1ccc(NC(=O)/C=C/c2cccc(Br)c2)cn1
- EC50 [3]: 16 µM (active)
- EC50 [4]: 12.4 µM (active)

Compound: O=c1[nH]n(-c2ncnc3c2cnn3-c2ccccc2)c(=O)c2ccccc12
- EC50 [3]: 11.6 µM (active)
- EC50 [4]: 7.26 µM (active)

Compound: Cc1nc(Nc2nc(CSc3nc4ccccc4[nH]3)cc(=O)[nH]2)nc2ccccc12
- AC50 (Paired box protein Pax-8): 9.16 µM (active)

Compound: COc1cccc(=O)c2c(C)oc(C)c12
- EC50 [3]: > 300 µM (not active)
- EC50 [4]: > 300 µM (not active)

Compound: Clc1ccc2nncn2n1
- IC50 [1]: > 47.1 µM (inactive)
- EC50 [2]: > 53 µM (inactive)

Compound: COC(=O)Cc1ccc(NC(=S)NCCC(C)C)cc1
- IC50 [1]: > 47.1 µM (inactive)
- EC50 [2]: > 53 µM (inactive)

Compound: O=C1CSC(=S)N1N=Cc1ccccc1O
- IC50 (Nonstructural protein 1): 1.75 µM (active)

Compound: OC(c1cc(-c2cccc(Cl)c2)nc2ccccc12)C1CCCCN1 (centres undefined)
- AC50 [7]: 15.4 µM (active)
- AC50 [8]: 16 µM (active)
- AC50 [9]: 10.8 µM (active)

Compound: O=C(CCc1ccccc1)Nc1c(F)cccc1F
- IC50 [1]: > 47.1 µM (inactive)
- EC50 [2]: > 53 µM (inactive)

Compound: O=C(NCc1ccncc1)c1cc(F)c(F)cc1Cl
- IC50 [1]: > 47.1 µM (inactive)
- EC50 [2]: > 53 µM (inactive)

Compound: Cc1cc(/C=N/NC(=O)c2ccoc2C)cc(C)c1O
- IC50 [1]: > 47.1 µM (inactive)
- EC50 [2]: > 53 µM (inactive)

Compound: COc1ccc(NC(=O)C2Cc3c(-c4cccc(C(C)=O)c4)ccnc3O2)cc1OC (centres undefined)
- AC50 [7]: 4.68 µM (active)
- AC50 [8]: 7.75 µM (active)
- AC50 [9]: 0.799 µM (active)

Compound: C[C@@H]1CN([C@H](C)CO)C(=O)c2cc(NC(=O)Nc3ccc(F)cc3)ccc2O[C@@H](C)CCCCO[C@H]1CN(C)Cc1ccc(Cl)c(Cl)c1
- AC50 (Paired box protein Pax-8): 9.51 µM (active)

Compound: C[C@@H]1CCCCO[C@@H](CN(C)Cc2ccc(Cl)c(Cl)c2)[C@H](C)CN([C@@H](C)CO)C(=O)c2cc(NS(=O)(=O)c3ccccc3)ccc2O1
- AC50 (Paired box protein Pax-8): 13.4 µM (active)

Compound: CN1C(=O)C(=Cc2c[nH]c3ccccc23)C(=O)N(C)C1=O
- EC50 [3]: 52.9 µM (active)
- EC50 [4]: 151 µM (active)

Compound: Cc1cccn2c(=O)c3cc(C(=O)NC4CCCC4)c(=N)n(CCc4ccccc4)c3nc12
- EC50 [3]: > 300 µM (not active)
- EC50 [4]: > 300 µM (not active)
